Measurements published in patent US20040097408A1, “Compounds regulating cell proliferation and differentiation” (priority 2001, published 2004).
Values joined by “and” are separate entries in the source; they are usually repeats but may differ in a detail not shown here. Equal values may be shown once.

How the values were obtained:
[1] = tested on: MDA-MB-436; assay: cell count proliferation assay; format: cell-based; parameters: key: +: A positive scoring in these Tables represent cells in which a 2-5 and a 10-40 fold reduction in the total number of cells relative to the control untreated cells was observed after 3 and 7 days of culture with F16, respectively; settings: MDA-MB-436, human breast; F16 3 μM, cells counted after 3 and 7 days
Excerpt: (§1) The following panel of mouse tumor cell lines derived from Neu, Ras and Myc transgenic mice and panel of human cancer cell lines were used: a) Neu-initiated mouse tumor cell lines NF980, NF324-2A, NF324-1B, SMF, NAF, Neu4145, n-Neu, Ras-initiated mouse tumor cell lines SH1,1, AC236, AC711, AC816, ACp53^−#1, ACp53^−4782, AC222, AC99, AC260, ACp53^−#19, ACp53^−#16, AC/Balb6.6, AC/Balb14, AC/Balb12 and Myc-initiated mouse tumor cell lines 16MB9a, 13MA1a; and b) human breast tumor cell lines MDA-MB231, MDA-MB435, MDA-MB436, MDA-MB453, MDA-MB-468, SKBR-3, MCF-7, T47D, ZR75; human prostate cancer cell lines LNCaP, PC-3, DU145 and the human ovarian cancer cell line SKOV-3.
(§2) For each cell line, 10^5 cells were seeded in 4×6 well plates. Next day, F16 was added at 3 μM to the medium of 2 of the plates, while the other two were left untreated (control). Cells were counted 3 days and 7 days after initiation of treatment.
(§3) A positive scoring in these Tables represent cells in which a 2-5 and a 10-40 fold reduction in the total number of cells relative to the control untreated cells was observed after 3 and 7 days of culture with F16, respectively.

[2] = tested on: MDA-MB-453; assay: cell count proliferation assay; format: cell-based; parameters: key: +: A positive scoring in these Tables represent cells in which a 2-5 and a 10-40 fold reduction in the total number of cells relative to the control untreated cells was observed after 3 and 7 days of culture with F16, respectively; settings: MDA-MB-453, human breast; F16 3 μM, cells counted after 3 and 7 days
Excerpt: as §1, §2, §3

[3] = tested on: EpH-A6 cells; assay: tumor growth of EpH-A6 cells injected subcutaneously in nude mice; format: in vivo, mouse; parameters: Tumor weight, right flank / Tumor weight, left flank: unit not given here; settings: for Tumor weight, left flank / Tumor weight, right flank: individual nude mice, F16 20 mg/kg intraperitoneally twice a day, 20 mg/kg
Description: Twenty nude mice of 8-10 weeks of age were injected subcutaneously with 10^6 EpH-A6 cells in the left and right flanks. Three days after the cell injection, a 20 mg/kg dose of F16 (40% DMSO/60% PBS) was injected intraperitoneally twice a day to a group of 10 mice, and an equivalent dose of vehicle to the remaining 10 mice (placebo mice). After 10 days of treatment, tumors were removed from all mice and weighted. Tumor tissue was used for FACS analysis, pathology, and some were stored at −70° C. until further processing.

[4] = tested on: EpH4-A6 cells; assay: ATP levels (ATP Bioluminescence Assay); format: cell-based, mouse; settings: 3 μM F16, 24 hr, FIG. 10
Description: One of the major roles of mitochondria is to supply energy to the cell. To assess alterations in mitochondrial function, ATP levels were determined in F16-treated cells by the luciferase-catalyzed ATP-dependent bioluminescent oxidation of luciferin using the ATP Bioluminescence Assay Kit (Roche). EpH4-EV and EpH4-A6 cells were grown in the absence or in the presence of 3 μM F16 for 15 hr and 24 hr. As a control A6 were treated with 5 μM FCCP (Sigma). Cells were then harvested, counted and equivalent numbers used for each determination, according to manufacturer's procedure. Each determination was done in triplicate, and the entire experiment was performed twice.

[5] = tested on: isolated mouse liver mitochondria; assay: mitochondrial oxygen consumption (Clarke-type oxygen electrode); format: biochemical
Description: Mitochondria were isolated from liver of Balb/c7 mice by standard differential centrifugation, and resuspended in isolation buffer (0.2 M sucrose, 10 mM Tris-MOPS pH 7.4, 0.1 mM EGTA-Tris, 0.1% delipidated BSA) (Costantini et al. (1995) Toxicology (99) 77-88). Protein concentration was determined by Bradford assay. For swelling determination, changes in side scatter at 545±2.5 nm of a 0.5 mg/ml suspension of mitochondria in experimental buffer (125 mM KCl, 10 mM Tris-MOPS pH 7.4, 1 mM Pi, 5 mM glutamate, 2.5 mM malate, 10 μM EGTA-Tris, pH 7.4) were monitored by using LS-50B spectrofluorimeter. To monitor changes in mitochondrial membrane potential, the intrinsic potentiometric properties of F16 were used. Mitochondria (0.5 mg/ml) were incubated in experimental buffer with the indicated concentrations of F16 and changes in F16 fluorescence intensity were measured, using a LS-50B spectrofluorimeter at 25° C., with excitation and emission wavelengths set at 415±2.5 nm and 520±5 nm, respectively. […]
The mechanism of PTP induction by F16 was further investigated as follows. […] First, the effects of F16 were measured on basal (state 4) and uncoupled mitochondrial respiration as follows. Oxygen consumption was determined using a Clarke-type oxygen electrode equipped with thermostatic control and magnetic stirring. […]

[6] = tested on: Neu, PKB/Akt and MAP kinase in EpH4-A6 cells; assay: Western blot of Neu-dependent signaling; format: cell-based, mouse; settings: 3 μM F16, FIG. 12
Description: In parallel to the characterization of the effect of F16 on mitochondria homeostasis the effect of F16 on cell signaling was investigated. Control and Neu-overexpressing EpH4-A6 cells were left untreated or treated with 3 μM F16 for 24 and 48 hr. Whole cell lysates were prepared as described above. Samples were immnoblotted with antibodies against Neu, PKB, MAPK, as well as antibodies that react with the phosphorylated forms of the proteins, as described above. Samples were probed with anti-β-actin as loading control, also as described above.

C[n+]1ccc(/C=C/c2c[nH]c3ccccc23)cc1.[I-] [F16]
F16 response [1]: +
F16 response [2]: +
Tumor weight, left flank ([3]; Experiment #1, 10 days): 0.1131 and 0.0293 and 0.1365 and 0.021 and 0.1463 and 0.1127 and 0.1186 and 0.097 and 0.1163 and 0.1174
Tumor weight, right flank ([3]; Experiment #1, 10 days): 0.214 and 0.0666 and 0.1984 and 0.1597 and 0.1645 and 0.1127 and 0.2314 and 0.2412 and 0.2408 and 0.2174
Tumor weight, left flank ([3]; Experiment #2, 10 days): 0.054 and 0.4294 and 0.3368 and 0.041 and 0.2375 and 0.2087 and 0.1809 and 0.0454 and 0.1417 and 0
Tumor weight, right flank ([3]; Experiment #2, 10 days): 0.022 and 0.632 and 0.2078 and 0.1798 and 0.1063 and 0.2621 and 0.1315 and 0.1971 and 0.3451 and 0
difference in tumor size relative to the control mice ([3]; F16 20 mg/kg twice a day, 10 days): 2-3 fold
cells undergoing mitosis in tumors (pathology) ([3]; at least some F16 treated tumors compared to untreated tumors): decrease in number of cells undergoing mitosis
ATP pool [4]: significant depletion in the ATP pool
uncoupled mitochondrial respiration [5]: inhibits uncoupled respiration
state 4 (basal) mitochondrial oxygen consumption ([5]; substrates for complexes I and II+III): increase in state 4 of mitochondrial oxygen consumption
phosphotyrosine content of Neu, phosphorylated PKB/Akt, and phosphorylated MAP kinase [6]: decreased
